Data set [1] is described as follows: CNS symptoms and neurotoxicity (Fluoro-Jade C, ATF3) in dog toxicity studies. The data set is classed as in vivo. The procedure:
In order to evaluate the potential neurotoxic effect of HM06-01, Fluoro-Jade C staining was performed on nine different brain areas (i.e., frontal pole, optic chiasm, infundibulum, mammillary bodies, base of third cranial nerve, anterior portion of pons and occipital pole section, cerebellum and medulla oblongata) of control dogs and dogs treated with 45 mg/kg BID HM06-01/TAS0953-01 (samples were taken from the 2-week toxicity study in dogs). In addition, ATF3 immunostaining was performed only on one control and one high dose dog treated with 45 mg/kg BID, in order to validate with an alternative method, the absence of any signs of neuronal degeneration or suffering.

Data set [2] can be described thus: ECG and blood pressure, 2-week toxicology GLP study. As to conditions: for mean arterial blood pressure: high dose females. The class given is in vivo, dog. The procedure: The effect of HM06-01/TAS0953-01 on the ECG was investigated in the 2-week toxicology GLP study in dog as described above on Day 12. […] Heart rate and ECG were also not affected at all dose levels tested. […] At +8 h, arterial blood pressure had returned to control/baseline levels. Although this decrease was not statistically significant versus control, it was consistent and noticeable enough to be considered test item related. Nevertheless, since the extent of the change was limited and present only in the high dose females, and as this decrease in blood pressure had no negative impact on the animals' health, it was considered as non-adverse.

Data set [3] can be described thus: ECG, 4-week toxicology GLP study. The class given is in vivo, dog. The procedure: The effect of HM06-01/TAS0953-01 on the ECG was also investigated in the 4-week toxicology GLP study in dog as described above (and further described in Example 8) on week 1 (Day 2), week 4 (Day 23) and at the end of the 2-week recovery period. […] Whereas, on Day 23, no test item-related effects were noted on electrocardiographic parameters at 15 and 30 mg/kg BID in males. […] These electrocardiographic effects were no longer observed at the end of the 2 week recovery period. In addition, there were no abnormalities in electrocardiogram rhythm and waveforms on Day 2 and Day 23, and at the end of the recovery period.

A short description of data set [4]: Respiratory system, 4-week GLP study. As to conditions: 25, 50 and 90 mg/kg BID, week 4. The data set is classed as in vivo, rat. The procedure:
The effect of HM06-01/TAS0953-01 on the respiratory system was also investigated after repeated administration with HM06-01/TAS0953-01 at 25, 50 and 90 mg/kg BID in the 4-week GLP study in rats further described in Example 8. Each group comprised 5 animals/group/sex.

Data set [5] is described as follows: 4-week GLP toxicity study in rat. The class given is in vivo. Conditions: for AUC(0-t): 50 mg/kg, 50 mg/kg BID. The method, then: In the 4-week GLP toxicity study in rat, animals received 0, 25, 50, and 90 mg/kg BID HM06-01/TAS0953-01 by oral gavage. In the high dose of 90 mg/kg BID group, test item-related mortality was observed: 3 females were found dead or were prematurely sacrificed for ethical reasons (severe clinical signs like decreased activity, abnormal respiratory rate and erected fur) from Day 10 to Day 14. At necropsy, discolorations of the lungs were generally observed, histologically correlated with adverse moderate to marked inflammatory changes in the lungs (alveolar/perivascular inflammation, macrophages aggregates, alveolar oedema/hemorrhage). One additional female (satellite) was found dead on Day 7 before dosing. However, in absence of clinical sign and of abnormality at necropsy, the relationship with the test item administration was considered doubtful.

Data set [6] is described as follows: 4-week GLP toxicity study in dog. The class given is in vivo. As to conditions: for AUC(0-t): beagle, dog, in vivo, po, 30 mg/kg, 30 mg/kg BID. The method, then:
In the 4-week GLP toxicity study in dog, animals received 0, 15, 30, and 45 mg/kg BID HM06-01/TAS0953-01 by oral gavage for 4 consecutive weeks followed by 2-week recovery period. In the high dose of 45 mg/kg BID group, test item-related mortality was observed: 2 males were prematurely sacrificed on Day 17 and Day 18 for ethical reasons (severe clinical signs associated with a significant body weight loss). The main cause of death was the mild to moderate multifocal subacute inflammation with alveolar or bronchioalveolar distribution, accompanied in one male with alveolar foreign body granulomas. In the other male, minimal pancreatic acinar vacuolation/apoptosis with prostatic acinar apoptosis were noted, for which the relationship with test item cannot be excluded.

Data set [7] can be described thus: Proconvulsant and anticonvulsant effects (pentylenetetrazole).
Data set [8] concerns cell line from a patient who acquired resistance to RXDX-105 (KIF5B-RET fusion). Briefly: Growth inhibition, RXDX-105-resistant cell line. The data set is classed as cell-based. As to conditions: Homo sapiens; RXDX-105-resistant, KIF5B-RET; read-out: IC50 growth inhibition.

SMILES strings stand for the structures.

Regarding `COCc1ccc(NC(=O)c2c(C#CCN3CCOCC3)n(C3(C)CC3)c3ncnc(N)c23)cc1` [HM06-01/TAS0953-01, 4-amino-N-(4-(methoxymethyl)phenyl)-7-(1-methylcyclopropyl)-6-(3-morpholinoprop-1-yn-1-yl)-7H-pyrrolo[2,3-d]pyrimidine-5-carboxamide], in data set [1] (45 mg/kg BID, 2-week toxicity study, brain areas), the “neuronal degeneration (Fluoro-Jade C, ATF3)” value was “no evidence of any neuronal degeneration”. Moreover, the “dose at which CNS symptoms were seen” value is on record as not below 5 mg/kg BID in data set [1] (after the first administration in PK studies); not below 15 mg/kg BID in data set [1] (after the first daily dose, routine clinical observations, 2-week and 4-week toxicity studies). For the same compound, the QT prolongation result in data set [2] (15, 30 and 45 mg/kg BID, Day 12) is “No evidence of QT prolongation”. The “heart rate and ECG” value in data set [2] (all dose levels tested) was “not affected”. Besides, the “mean arterial blood pressure” value in data set [2] (1 hour after the second daily dose, vehicle 115) came to 93 mmHg; in data set [2] (5 hours after the first daily dosing, vehicle 127) it was 91 mmHg. In addition, the ECG effects result in data set [3] (Day 2, two hours after second daily dose, 15, 30 and 45 mg/kg BID) is reported as “no effects”. Moreover, in data set [3] (Day 23, females, 15, 30 and 45 mg/kg), the “prolongation of Fridericia and Van der Water corrected QTc interval versus control” value is listed as “up to 8%”. Besides, the heart rate entry in data set [3] (Day 23, males, 45 mg/kg BID) is on record as “slight increase in heart rate”. Also, the respiratory parameters result in data set [4] is on record as “Neither toxicologically relevant effects in respiratory parameters were observed at week 4”. Also, the test item-related mortality was 3 females in data set [5] (90 mg/kg BID, Day 10 to Day 14); 2 males in data set [6] (45 mg/kg BID, Day 17 and Day 18). The “decrease of body weight” value in data set [5] (90 mg/kg BID, both sexes) is 10%. The “severely toxic dose 10 (STD 10)” value in data set [5] (4-week, oral gavage) came to 50 mg/kg BID. The ophthalmology result in data set [5] (4 weeks oral BID) is “no change in ophthalmology”. Moreover, in data set [5] (25-90 mg/kg BID), the “systemic exposure vs dose” value is on record as “approximately dose proportional manner”. Further, the body weight result in data set [5] (25 and 50 mg/kg BID) was “no effect on body weight”; in data set [6] (low dose), “no effect on body weight”. Also, the systemic accumulation result in data set [5] (Day 28) is recorded as “no systemic accumulation”. The “clinical chemistry, AST and ALT” value in data set [5] (both sexes) was “dose-dependent increase in AST and ALT”. For the same compound, in data set [5] (both sexes), the “hematology, reticulocytes” value is “dose-dependent increase in reticulocytes”. Further, the urine protein concentration entry in data set [5] (both sexes) is reported as “dose-dependent increase in urine protein concentration”. In addition, the microscopic findings entry was “inflammatory microscopic findings were noted in the lungs” in data set [5] (end of dosing period) and “inflammatory microscopic findings in the lungs” in data set [6] (end of dosing period). Further, the AUC(0-t) in data set [5] (female, rat, in vivo, po, Day 1, females) worked out at 37200 ng·h/mL; in data set [5] (female, rat, in vivo, po, Day 28, females), 74300 ng·h/mL; in data set [5] (male, rat, in vivo, po, Day 1, males), 50300 ng·h/mL; in data set [5] (male, rat, in vivo, po, Day 28, males), 73000 ng·h/mL; in data set [6] (female, Day 1, females), 29200 ng·h/mL; in data set [6] (female, Day 28, females), 29100 ng·h/mL. Moreover, the AUC(0-t) was 21400 ng·h/mL in data set [6] (male, Day 1, males) and 22300 ng·h/mL in data set [6] (male, Day 28, males). In addition, the Tmax in data set [5] (rat, in vivo, po, Day 1, after the first daily dose) came out at 7 h; in data set [5] (rat, in vivo, po, Day 28, after the first daily dose) it was 1 h. In addition, the half-life in data set [5] (rat, in vivo, po, after the second daily dose, when estimable) lay in the range of 2.03 to 3.67 h. Besides, the body weight loss in data set [6] (45 mg/kg BID, Male No. 642, day 17) is reported as −12%; in data set [6] (45 mg/kg BID, Male No. 644, day 15), −25%. Also, the “highest non severely toxic dose (HNSTD)” value in data set [6] (4-week, oral gavage) came out at 30 mg/kg BID. In addition, the “ophthalmology, urinalysis, coagulation, clinical chemistry” value in data set [6] (4 weeks oral BID) is “no change in ophthalmology, urinalysis and on coagulation and clinical chemistry parameters”. The “hematology, total white blood cell count” value in data set [6] (both sexes) is listed as “increase in total white blood cell count”. Besides, the “dose at which test item-related clinical signs were noted” value in data set [6] (from Day 1) was not below 15 mg/kg BID. For the same compound, the proconvulsant activity result in data set [7] (30, 100 and 200 mg/kg oral, 1 hour prior to 25 mg/kg PTZ) is reported as “did not demonstrate any proconvulsant activity”. The “anticonvulsant effect, total number of convulsions” value in data set [7] (100 and 200 mg/kg oral, pentylenetetrazole) is “decrease in the total number of convulsions”.

As for `COc1cc2nccc(Oc3ccc(NC(=O)C4(C(=O)Nc5ccc(F)cc5)CC4)cc3)c2cc1OC` [cabozantinib, reference compound], in data set [8], the IC50 came to 340 nM.

A word on the AUC(0-t): it is the area under the concentration-time curve up to a stated or last time point. Read a high AUC(0-t) as more exposure. What is called Tmax is the time from dosing to the highest level. One may read the half-life as the time in which the quantity being followed falls by half. A low value points to fast loss. What is called IC50 is the point on the concentration scale where inhibition reaches its midpoint.

These data come from patent publication US20240000791A1, “Methods of Using 4-Amino-N-[4-(Methoxymethyl)Phenyl]-7-(1-Methylcyclopropyl)-6-(3-Morpholinoprop-1-YN-1-YL)-7H-Pyrrolo[2,3-D]Pyrimidine-5-Carboxamide for the Treatment of Tumors” (Helsinn Healthcare SA, priority 2020, published 2024).
